Laboratory results reported in paper PMC9430567, “A Small-Molecule Inhibitor of the Anthranilyl-CoA Synthetase PqsA for the Treatment of Multidrug-Resistant Pseudomonas aeruginosa” (Microbiology Spectrum, 2022).
Converted amounts (≈) assume the structure as drawn.

Key:
PqsE = biological target: T1, PqsE (Pseudomonas aeruginosa, UniProt P20581); assay: biolayer interferometry (Octet K2); format: binding
T1 construct: His6-tagged PqsE (pET30a-His6-pqsE), expressed in E. coli BL21 Star (DE3)

LasR = biological target: T2, LasR (Pseudomonas aeruginosa, UniProt P25084); assay: biolayer interferometry (Octet K2); format: binding
T2 construct: His6-tagged LasR (pET30a-His6-LasR), expressed in E. coli BL21 Star (DE3)

PqsA G279A = biological target: T3, PqsA G279A (Pseudomonas aeruginosa, UniProt Q9I4X3, G279A); assay: biolayer interferometry (Octet K2); format: binding
T3 construct: His6-tagged PqsA G279A (pET30a-His6-pqsA^G279A), expressed in E. coli BL21 Star (DE3)
T3 sequence (Q9I4X3 1-517 G279A): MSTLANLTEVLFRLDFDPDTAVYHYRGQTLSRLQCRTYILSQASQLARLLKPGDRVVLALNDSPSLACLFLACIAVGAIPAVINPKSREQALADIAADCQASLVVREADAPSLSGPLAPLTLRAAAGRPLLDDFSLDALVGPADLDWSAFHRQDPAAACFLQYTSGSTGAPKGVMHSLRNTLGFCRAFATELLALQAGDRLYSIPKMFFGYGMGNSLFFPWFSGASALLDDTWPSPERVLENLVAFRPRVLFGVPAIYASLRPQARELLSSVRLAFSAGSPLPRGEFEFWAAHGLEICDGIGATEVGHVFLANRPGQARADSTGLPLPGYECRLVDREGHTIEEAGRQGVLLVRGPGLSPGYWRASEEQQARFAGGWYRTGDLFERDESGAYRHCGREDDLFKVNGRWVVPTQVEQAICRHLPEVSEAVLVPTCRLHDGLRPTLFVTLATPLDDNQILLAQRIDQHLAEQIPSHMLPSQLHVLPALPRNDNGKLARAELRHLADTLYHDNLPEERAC

[1] = biological target: T4, anthranilyl-CoA synthetase PqsA (Pseudomonas aeruginosa, UniProt Q9I4X3); assay: biolayer interferometry (Octet K2); format: binding
T4 construct: His6-tagged PqsA (pET30a-His6-pqsA), expressed in E. coli BL21 Star (DE3)

PqsA D299A = biological target: T5, PqsA D299A (Pseudomonas aeruginosa, UniProt Q9I4X3, D299A); assay: biolayer interferometry (Octet K2); format: binding
T5 construct: His6-tagged PqsA D299A (pET30a-His6-pqsA^D299A), expressed in E. coli BL21 Star (DE3)
T5 sequence (Q9I4X3 1-517 D299A): T3 sequence (Q9I4X3 1-517 G279A)

LasI = biological target: T6, LasI (Pseudomonas aeruginosa, UniProt P33883); assay: biochemical; design: biolayer interferometry (BLI) binding to purified His6-tagged protein
T6 construct: His6-tagged LasI (pET30a-His6-lasI)
Protocol: (§1) [compound left out]. Cell debris was removed by centrifugation. […] The purified protein was assessed by SDS-PAGE.

PqsD = biological target: T7, PqsD (Pseudomonas aeruginosa, UniProt P20582); assay: biochemical; design: biolayer interferometry (BLI) binding to purified His6-tagged protein
T7 construct: His6-tagged PqsD (pET30a-His6-pqsD)
Protocol: as §1

PqsR = biological target: T8, PqsR (Pseudomonas aeruginosa, UniProt Q9I4X0); assay: biochemical; design: biolayer interferometry (BLI) binding to purified His6-tagged protein
T8 construct: gene mvfR; His6-tagged PqsR (pET30a-His6-pqsR)
Protocol: as §1

RhlI = biological target: T9, RhlI (Pseudomonas aeruginosa, UniProt P54291); assay: biochemical; design: biolayer interferometry (BLI) binding to purified His6-tagged protein
T9 construct: His6-tagged RhlI (pET30a-His6-rhlI)
Protocol: as §1

RhlR = RhlR (Pseudomonas aeruginosa, UniProt P54292); assay: biochemical
MDR P. aeruginosa C218 = system: T10, MDR P. aeruginosa C218; assay: microbe, parasite or virus in culture; design: species or system Pseudomonas aeruginosa C218; CLSI broth micro-dilution MIC, complete inhibition of visible growth; conditions: Pseudomonas aeruginosa
T10 construct: C218
Protocol: MIC determination using the standard micro-dilution method was performed according to the Clinical and Laboratory Standards Institute ([29]). […] Experiments were performed in triplicate.

Structure (SMILES) | MIC (MDR P. aeruginosa C218) [µg/mL] | also measured
c1ccc2c(c1)[nH]c1cnccc12 [norharmane] | – | Kd (PqsE): 500 µM; Kd (LasR): 2290 µM; Kd (PqsA G279A): 1100 µM; Kd [1]: 2.54 µM; Kd (PqsA D299A): 1650 µM; Kd (LasI): > 1000 µM; Kd (PqsD): > 1000 µM; Kd (PqsR): > 1000 µM; Kd (RhlI): > 1000 µM; Kd (RhlR): > 1000 µM
CC1(C)S[C@@H]2[C@H](NC(=O)[C@H](NC(=O)N3CCNC3=O)c3ccccc3)C(=O)N2[C@H]1C(=O)O [Azlocillin] | 4000 (≈ 8670 µM) | –
NCC[C@H](O)C(=O)N[C@@H]1C[C@H](N)[C@@H](O[C@H]2O[C@H](CN)[C@@H](O)[C@H](O)[C@H]2O)[C@H](O)[C@H]1O[C@H]1O[C@H](CO)[C@@H](O)[C@H](N)[C@H]1O [Amikacin] | 7.8 (≈ 13.3 µM) | –
CCn1cc(C(=O)O)c(=O)c2cc(F)c(N3CCNC(C)C3)c(F)c21 (centres unmarked) [Lomefloxacin] | 125 (≈ 356 µM) | –
COc1c(N2CCNC(C)C2)c(F)cc2c(=O)c(C(=O)O)cn(C3CC3)c12 (centres unmarked) [Gatifloxacin] | 62.5 (≈ 166 µM) | –
C[C@H]1COc2c(N3CCN(C)CC3)c(F)cc3c(=O)c(C(=O)O)cn1c23 [Levofloxacin] | 62.5 (≈ 173 µM) | –
CC(C)(O/N=C(\C(=O)N[C@@H]1C(=O)N2C(C(=O)[O-])=C(C[n+]3ccccc3)CS[C@H]12)c1csc(N)n1)C(=O)O [Ceftazidime] | 500 (≈ 915 µM) | –
CO/N=C(\C(=O)N[C@@H]1C(=O)N2C(C(=O)[O-])=C(C[N+]3(C)CCCC3)CS[C@H]12)c1csc(N)n1 [Cefepime] | 4000 (≈ 8320 µM) | –
C[C@@H](O)[C@H]1C(=O)N2C(C(=O)O)=C(S[C@@H]3CN[C@H](C(=O)N(C)C)C3)[C@H](C)[C@H]12 [Meropenem] | 500 (≈ 1300 µM) | –
C[C@@H](O)[C@H]1C(=O)N2C(C(=O)O)=C(SCCNC=N)C[C@H]12 [Imipenem] | 500 (≈ 1670 µM) | –
CC1COc2c(N3CCN(C)CC3)c(F)cc3c(=O)c(C(=O)O)cn1c23 (centres unmarked) [Ofloxacin] | 500 (≈ 1380 µM) | –
C[C@@H](O)[C@H]1C(=O)N2C(C(=O)O)=C(S[C@@H]3CN[C@H](CNS(N)(=O)=O)C3)[C@H](C)[C@H]12 [Doripenem] | 500 (≈ 1190 µM) | –
C[C@H]1[C@H](NC(=O)/C(=N\OC(C)(C)C(=O)O)c2csc(N)n2)C(=O)N1S(=O)(=O)O [Aztreonam] | 4000 (≈ 9190 µM) | –
NC[C@H]1O[C@H](O[C@H]2[C@H](O)[C@@H](O[C@H]3O[C@H](CO)[C@@H](O)[C@H](N)[C@H]3O)[C@H](N)C[C@@H]2N)[C@H](N)C[C@@H]1O [Tobramycin] | 3.9 (≈ 8.34 µM) | –
CCN1CCN(C(=O)N[C@@H](C(=O)N[C@@H]2C(=O)N3[C@@H]2SC(C)(C)[C@@H]3C(=O)O)c2ccccc2)C(=O)C1=O [Piperacillin] | 4000 (≈ 7730 µM) | –
NC[C@H]1O[C@H](O[C@H]2[C@H](O)[C@@H](O[C@H]3O[C@H](CO)[C@@H](O)[C@H](N)[C@H]3O)[C@H](N)C[C@@H]2N)[C@H](O)[C@@H](O)[C@@H]1O [Kanamycin] | 310 (≈ 640 µM) | –
CCn1cc(C(=O)O)c(=O)c2cc(F)c(N3CCNCC3)cc21 [Norfloxacin] | 4000 (≈ 12500 µM) | –
